In one experiment the test system is leucine-DH. Put plainly: deamination of L-norleucine and L-leucine using leucine-DH, NADH formation at 340 nm. It counts as biochemical. The note with it: 10 mM substrate; 10 mM NAD+; pH 8.5; UV absorption at 340 nm. Here is the method: Deamination of L-norleucine and L-leucine (both commercial standards) was performed using a purified leucine-DH. Reactions contained 10 mM substrate, 10 mM NAD+ and 5 µl leucine-DH in a final volume of 1 ml Tris-HCl (pH 8.5, 0.1 M). Oxidation of the amino acids was successful as indicated by increasing UV absorption at 340 nm, corresponding to (concomitant) formation of NADH (Figure 3).

In another experiment the target is T1, CYPBSß (Bacillus subtilis, UniProt O31440).
T1 construct: made in house
As to the kind of experiment: conversion of fatty acid substrates with CYPBSß, oxidant H2O2. It counts as biochemical. The note with it: for 2a-d: H2O2; for Conversion: 3 µM P450BSß, KPi pH 7.0, 24 h, values marked a based on substrate depletion. Here is the method: (§1) P450Cla was ordered as synthetic gene and cloned into the pET28a expression vector. […] The dialysis buffer was supplemented with 300 mM NaCl to prevent precipitation of P450Cla. Next, hydroxylation of fatty acid substrates 1a-d (scheme 2) was performed employing purified P450Cla and P450BSß. The oxidant source was varied in case of P450Cla while only H2O2 was used with P450BSß.
Reaction conditions for P450BSß: 3µM P450BSß; KPi buffer (pH 7.0; 0.1 M); 5 % EtOH (cosolvent). […] All products were identified by GC-MS and/or comparison with authentic materials.
(§2) All reactions were performed in closed glass vials for 24 h reaction time at RT with 170 rpm shaking. The reactions were quenched by addition of 100 µl 5 N HCl. Extractions were performed with 500 µl EtOAc containing 0.1 % 1-decanol as internal standard. After drying over Na2SO4, derivatization of acids to corresponding methyl esters was realized by mixing 150 µl of organic phase with 90µl of MeOH prior to supplementation of 20 µl of TMSCHN2 for esterification. Samples were analyzed by GC-FID and GC-MS. Commercial standards of 2-hydroxycaproic acid (2a), 2-hydroxyoctanoic acid (2b) and 2-oxooctanoic acid (4b) were used as references. Calibration curves were obtained from standards 1a-d and 2a-b prepared identically to the reaction mixtures (5 concentration points from 10 µM to 1 mM).

Experiment [1] relates to P450Cla. As to the kind of experiment: conversion of fatty acid substrates 1a-d with P450Cla, oxidant H2O2. It counts as biochemical. The settings on record: for 2a-d: H2O2; for Conversion: 3 µM P450Cla, 24 h, RT, values marked a based on substrate depletion. Here is the method: as §1
Reaction conditions for P450Cla: 3µM P450Cla; Tris-HCl (pH 7.5; 0.1 M); 2.5 to 5 % EtOH (cosolvent for the substrate).
as §2

The next experiment has as its target YcnD (Bacillus subtilis, UniProt P94424). As to the kind of experiment: oxidation/dehydrogenation of alpha-hydroxy acids 2a-b, YcnD alone. The note with it: 10 mM substrate; YcnD without HICDH; KPi pH 7.5; RT, 24 h.
For another experiment, the system named is L- and D-HICDH. As to the kind of experiment: oxidation of alpha-hydroxy acids with L- and D-HICDH, NADH formation at 340 nm. Type of experiment: biochemical. The note with it: for NADH concentration: after 1 min reaction time, estimated (Figure 2); for Oxidation of the α-hydroxy acid substrates: 1 or 10 mM substrate, 10 mM NAD+, pH 8.5, UV absorption at 340 nm. The protocol:
A modified protocol for oxidation of 2-hydroxy acids with L-and D-HICDH was established allowing oxidation of 2-hydroxyhexanoic acid and 2-hydroxyoctanoic acid (both commercial standards) that are produced in step 1 of the cascade (Scheme 1). Reactions contained 1 or 10 mM substrate, 1 % DMSO, 10 mM NAD+ and 0.25 mg of L- and D-HICDH (cell free freeze-dried lysates) in a final volume of 1 ml Tris-HCl (pH 8.5, 0.1 M). Oxidation of the α-hydroxy acid substrates was successful as indicated by increasing UV absorption at 340 nm, corresponding to (concomitant) formation of NADH (Figure 2).

The next experiment concerns D/L-HICDH-YcnD. Put plainly: oxidation/dehydrogenation of alpha-hydroxy acids 2a-b using D/L-HICDH with NADH-oxidase YcnD. It counts as biochemical. The note with it: 10 mM substrate; with YcnD and catalase; KPi pH 7.5; 1 mM NAD+ (also 6.75 mM); RT, 24 h.
Another experiment deals with D/L-HICDH. As to the kind of experiment: oxidation/dehydrogenation of alpha-hydroxy acids 2a-b using D/L-HICDH. Type of experiment: biochemical. The note with it: 10 mM substrate; KPi pH 7.5; 1 mM NAD+ (also 6.75 mM); RT, 24 h.
The subject of experiment [2] is P450Cla. Put plainly: alpha-hydroxylation of selected fatty acids, catalytic and kinetic characterization of P450Cla. It counts as biochemical. The settings on record: for specific activity U mg^-1: P450Cla 48 kDa, values only relevant at initial rate; for Coupling*: mol product per mol H2O2; for Product: 10 mM fatty acid, 0.5 µM P450Cla (C10), 1 µM (C8, C6), Tris-HCl pH 7.5, RT, triplicate. Here is the method:
Hydroxylation of selected fatty acids was carried out using a fresh preparation of purified P450Cla. P450Cla was characterised for key catalytic parameters specific activities were determined for three selected substrates as shown in Table 1. Table 1: Catalytic and kinetic characterization of P450Cla for conversion of 10 mM of selected fatty acids. All reactions were performed in triplicate.
Conditions: 0.5 µM P450Cla used in reactions with C10; 1 µM P450Cla used in reactions with C8 and C6; All reactions were performed in Tris-HCl (pH 7.5, 0.1 M) at RT and 170 rpm shaking in closed glass vials; *molProduct^-1 molH2O2^-1; ^§molecular weight of P450Cla is 48 kDa, values only relevant at initial rate.

Experiment [3] has as its system P450Cla, L- and D-HICDH, leucine-DH. Put plainly: three-step one-pot cascade of fatty acid to amino acid (TLC ninhydrin, GC-MS). It counts as biochemical. Here is the method: Hydroxylation of all four fatty acid substrates (C4, C6, C8, C10) was performed as described above using 3 µM P450Cla, 10 mM substrate and 2.5 % EtOH in a final volume of 1 ml Tris-HCl (pH 7.5, 0.1 M). H2O2 was supplemented every 30 min (23 times; 36.8 mM total). After 24 h, the hydroxylation reaction (step 1) was stopped by adding 1200 U catalase (1 mg), 20µl of (NH4)2SO4(2.5 M stock) and the pH was adjusted to 8.5 using 1 M NaOH. For step 2 and 3 of the cascade, Land D-HICDH (0.25 mg), 10 mM NAD+ and 5 µl purified leucine-DH were added to the reaction mixture. After 24 h reaction time, 2 µl of the reaction volume were spotted on a TLC plate along with a commercial standard of L-norleucine as reference material (positive control). After elution of products acetic acid/H2O/n-butanol as mobile phase (1:1:3), the plate was stained with ninhydrin and heated gently for colour development. […] The following control reactions were performed to confirm the overall success of the two step cascade leaving one of the following components out of the reaction: 1) P450; 2) L- or D-HICDH; 3) Leu-DH; 4) fatty acid substrate; 5) H2O2; 6) (NH4)2SO4; 7) NAD+. The reaction samples were analyzed by TLC as shown before, but formation of norleucine could not be detected. […]

The mark [4] stands for this setting: 5 mM substrate, H2O2 8 mM total.
The mark [5] stands for this setting: 10 mM substrate, H2O2 16 mM total.
Where [6] appears, read: 5 mM substrate, H2O2 9.6 mM total.
Setting [7] is: 10 mM substrate, H2O2 19.2 mM total.

Where two headings read alike, the source gives them in different places. Marks after values point to notes of the source that are not given here.

T1 sequence (O31440 whole entry): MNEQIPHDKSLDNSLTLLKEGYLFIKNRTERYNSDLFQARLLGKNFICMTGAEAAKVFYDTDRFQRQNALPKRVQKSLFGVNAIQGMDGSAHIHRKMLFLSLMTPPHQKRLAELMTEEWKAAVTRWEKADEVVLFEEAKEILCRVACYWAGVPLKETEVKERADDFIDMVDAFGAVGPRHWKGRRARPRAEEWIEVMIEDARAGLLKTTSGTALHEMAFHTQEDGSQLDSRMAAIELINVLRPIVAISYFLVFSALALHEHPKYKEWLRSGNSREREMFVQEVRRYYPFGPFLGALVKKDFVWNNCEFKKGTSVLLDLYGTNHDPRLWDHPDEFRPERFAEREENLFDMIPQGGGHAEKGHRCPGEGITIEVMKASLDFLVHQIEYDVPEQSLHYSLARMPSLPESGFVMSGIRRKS
YcnD, sequence (P94424 whole entry): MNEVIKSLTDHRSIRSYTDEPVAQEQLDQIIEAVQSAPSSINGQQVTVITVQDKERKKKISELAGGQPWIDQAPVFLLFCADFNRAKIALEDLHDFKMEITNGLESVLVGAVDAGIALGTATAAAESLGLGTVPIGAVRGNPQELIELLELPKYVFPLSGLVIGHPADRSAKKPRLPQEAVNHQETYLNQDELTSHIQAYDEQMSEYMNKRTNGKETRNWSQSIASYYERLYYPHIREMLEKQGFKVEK

In the case of `CC(C)C[C@H](N)C(=O)O` [L-leucine], the “Oxidation of the amino acids” value in the experiment on leucine-DH is recorded as “successful”.
As for `CCCC[C@H](N)C(=O)O` [L-norleucine], the “Oxidation of the amino acids” value in the experiment on leucine-DH is given as “successful”.
Take `CCCCCC(=O)O` [Substrate 1a, hexanoic acid]: the 2a-d is on record as 08 mM at CYPBSß (5 mM substrate); 1.1 mM on CYPBSß (10 mM substrate); 3.1 mM with P450Cla [1] (5 mM substrate); 5.1^c mM in the experiment on P450Cla [1] (10 mM substrate, values marked c outside of calibration range). Besides, the Conversion on CYPBSß (setting [4]) is on record as 16%; on CYPBSß (setting [5]) it was 11%; in the experiment with P450Cla [1] (setting [6]) it was 62%; with P450Cla [1] (setting [7]) it was 51%. In addition, the “α/β-Regioselectivity (2a-d vs 3a-d)” value on CYPBSß (5 mM substrate, share of 2a, 3a not detected) was 2a >95%^e; on CYPBSß (10 mM substrate, share of 2a, 3a not detected), 2a >95%^e.
Regarding `CCCCCCCC(=O)O` [Substrate 1b, octanoic acid], the Conversion is 96% with P450Cla [1] (setting [6]) and >99% in the experiment on P450Cla [1] (setting [7]).
For `CCCCCCCCCC(=O)O` [Substrate 1c, decanoic acid], the Conversion is 54^a % at CYPBSß (setting [4]), 46^a % on CYPBSß (setting [5]), >99^a % with P450Cla [1] (setting [6]) and >99^a % in the experiment with P450Cla [1] (setting [7]). In addition, the “α/β-Regioselectivity (2a-d vs 3a-d)” value was 2c/3c 64/36 at CYPBSß (5 mM substrate, ratio α-hydroxy/β-hydroxy product) and 2c/3c 56/44 on CYPBSß (10 mM substrate, ratio α-hydroxy/β-hydroxy product).
For the compound `CCCCC(O)C(=O)O` (stereo not shown) [Substrate 2a, 2-hydroxycaproic acid], the “α-Ketoacid 4a/b detected [Y/N]” value at YcnD, in the experiment with D/L-HICDH-YcnD and in the experiment with D/L-HICDH was “No” in each case. The NADH concentration with L- and D-HICDH (1 mM substrate) is recorded as 45 µM; with L- and D-HICDH (10 mM substrate), 142 µM. Also, the “Oxidation of the α-hydroxy acid substrates” value in the experiment with L- and D-HICDH is listed as “successful”.
Turning to `CCCCCCC(O)C(=O)O` (stereo not shown) [Substrate 2b, 2-hydroxyoctanoic acid], the entries for the “α-Ketoacid 4a/b detected [Y/N]” value on YcnD, with D/L-HICDH-YcnD and in the experiment on D/L-HICDH were “No”, “Yes (traces)” and “No”, respectively. For the same compound, the NADH concentration was 41 µM in the experiment with L- and D-HICDH (1 mM substrate); 126 µM in the experiment on L- and D-HICDH (10 mM substrate). Besides, in the experiment with L- and D-HICDH, the “Oxidation of the α-hydroxy acid substrates” value is “successful”.
As to `CCCCCC(=O)O` [Substrate C6, hexanoic acid], in the experiment on P450Cla [2], the “Selectivity [% α-OH]” value was > 90% and the specific activity was ≥ 1 U mg^-1. In the experiment on P450Cla [2] (5 min, H2O2 0.8 mM), the “Selectivity [% α-OH]” value is given as >95%, the TON was determined as 139 min⁻¹, the TTN stood at 695 and the “specific activity U mg^-1” value stood at 2.9 U mg^-1. Further, the “Coupling*” value with P450Cla [2] (5 min, H2O2 0.8 mM) is on record as 87%. In addition, in the experiment on P450Cla [2] (15 min, H2O2 0.8 mM), the “Selectivity [% α-OH]” value was >95%, the TON worked out at 47 min⁻¹, the TTN came out at 706 and the “specific activity U mg^-1” value was determined as 1.0 U mg^-1. Further, the “Coupling*” value with P450Cla [2] (15 min, H2O2 0.8 mM) amounted to 88%. In the experiment with P450Cla [2] (30 min, H2O2 1.6 mM), the “Selectivity [% α-OH]” value was >95%, the TON turned out to be 29 min⁻¹, the TTN worked out at 880 and the “specific activity U mg^-1” value was found to be 0.6 U mg^-1. Moreover, the “Coupling*” value with P450Cla [2] (30 min, H2O2 1.6 mM) is 55%. For the same compound, the “production of norleucine (GC-MS after derivatization)” value in [3] (10 mM hexanoic acid, Figure 4) was “successful production of norleucine”. In experiment [3] (10 mM substrate, step 1 24 h, steps 2 and 3 24 h, one pot), the “formation of norleucine / amino acid (TLC, ninhydrin staining)” value is on record as “distinct red spot”.
For `CCCCCCCC(=O)O` [Substrate C8, octanoic acid], in the experiment on P450Cla [2], the specific activity is ≥ 1 U mg^-1. Moreover, in the experiment on P450Cla [2] (5 min, H2O2 0.8 mM), the Product stood at 0.49 ± 0.02 mM, the TON is 98 min⁻¹, the TTN came out at 488 and the “specific activity U mg^-1” value is given as 2.0 U mg^-1. For the same compound, in the experiment with P450Cla [2] (5 min, H2O2 0.8 mM), the “Coupling*” value is 61%. In addition, in the experiment with P450Cla [2] (15 min, H2O2 0.8 mM), the Product amounted to 0.51 ± 0.01 mM, the TON came out at 34 min⁻¹, the TTN is 506 and the “specific activity U mg^-1” value was 07 U mg^-1. Further, in the experiment with P450Cla [2] (15 min, H2O2 0.8 mM), the “Coupling*” value amounted to 63%. Also, in the experiment with P450Cla [2] (30 min, H2O2 1.6 mM), the Product came to 0.94 ± 0.05 mM, the TON was determined as 31 min⁻¹, the TTN is on record as 938 and the “specific activity U mg^-1” value was found to be 0.7 U mg^-1. In the experiment on P450Cla [2] (30 min, H2O2 1.6 mM), the “Coupling*” value was 59%.

Source of the values: patent publication EP3095872A1, “A METHOD OF PRODUCING ALPHA AMINO ACIDS” (Evonik Degussa GmbH, priority 2015, dated 2016).
